Assay results: the supplement of paper PMC10307832

Columns and labels:
Test in all cases: relative viability (nuclei count vs DMSO), 5 days (fraction); higher = more cells survive
Ruboxistaurin + Olaparib = compound: CN(C)C[C@@H]1CCn2cc(c3ccccc32)C2=C(C(=O)NC2=O)c2cn(c3ccccc23)CCO1 [Ruboxistaurin] + O=C(c1cc(Cc2n[nH]c(=O)c3ccccc23)ccc1F)N1CCN(C(=O)C2CC2)CC1 [Olaparib] (partner 8 µM)
In short: (§1)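 Lung cancer cell lines were seeded in 1536-well plates and dosed by pin tool the next day, with either a single drug or a fixed anchor-drug dose combined with five library-drug doses (not always all listed) spaced in √10 steps. Five days later, one step fixed the cells and stained their nuclei (final 0.05% Triton X-100, 1% formaldehyde, 1 ug/ml Hoechst), and nuclei were counted on 4× images. Relative viability is the nuclei count in treated wells divided by the count in vehicle wells, and each value is the median of duplicate plates.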

[1] = compound: CN(C)C[C@@H]1CCn2cc(c3ccccc32)C2=C(C(=O)NC2=O)c2cn(c3ccccc23)CCO1 [Ruboxistaurin] + CCNC(=O)c1noc(-c2cc(C(C)C)c(O)cc2O)c1-c1ccc(CN2CCOCC2)cc1 [Luminespib] (partner 0.01 µM)
In short: as §1

[2] = compound: CN(C)C[C@@H]1CCn2cc(c3ccccc32)C2=C(C(=O)NC2=O)c2cn(c3ccccc23)CCO1 [Ruboxistaurin] + CC(=O)c1c(C)c2cnc(Nc3ccc(N4CCNCC4)cn3)nc2n(C2CCCC2)c1=O [Palbociclib] (partner 0.5 µM)
In short: as §1

[3] = compound: CN(C)C[C@@H]1CCn2cc(c3ccccc32)C2=C(C(=O)NC2=O)c2cn(c3ccccc23)CCO1 [Ruboxistaurin] + C[C@]1(O)C[C@@H](c2nc(-c3ccc4ccc(-c5ccccc5)nc4c3)c3c(N)nccn32)C1 [Linsitinib] (partner 1 µM)
In short: as §1

Ruboxistaurin + AZD7762 = compound: CN(C)C[C@@H]1CCn2cc(c3ccccc32)C2=C(C(=O)NC2=O)c2cn(c3ccccc23)CCO1 [Ruboxistaurin] + NC(=O)Nc1cc(-c2cccc(F)c2)sc1C(=O)N[C@H]1CCCNC1 [AZD7762] (partner 0.2 µM)
In short: as §1

Cell Line	relative viability (Ruboxistaurin + Olaparib; first compound 0.08 µM)	relative viability (Ruboxistaurin + Olaparib; first compound 0.8 µM)	relative viability (Ruboxistaurin + Olaparib; first compound 2.53 µM)	relative viability (Ruboxistaurin + Olaparib; first compound 8 µM)	relative viability ([1]; first compound 0.08 µM)	relative viability ([1]; first compound 0.8 µM)	relative viability ([1]; first compound 2.53 µM)	relative viability ([1]; first compound 8 µM)	relative viability ([2]; first compound 0.08 µM)	relative viability ([2]; first compound 0.8 µM)	relative viability ([2]; first compound 2.53 µM)	relative viability ([2]; first compound 8 µM)	relative viability ([3]; first compound 0.08 µM)	relative viability ([3]; first compound 0.8 µM)	relative viability ([3]; first compound 2.53 µM)	relative viability ([3]; first compound 8 µM)	relative viability (Ruboxistaurin + AZD7762; first compound 0.08 µM)	relative viability (Ruboxistaurin + AZD7762; first compound 0.8 µM)	relative viability (Ruboxistaurin + AZD7762; first compound 2.53 µM)	relative viability (Ruboxistaurin + AZD7762; first compound 8 µM)
LC-2-ad	0.711	0.626	0.697	0.752	1.22	0.989	1.01	1.1	0.469	0.424	0.45	0.532	0.931	0.862	0.912	0.742	0.882	0.807	0.862	0.813
LCLC-97TM1	0.355	0.334	0.352	0.341	0.769	0.815	0.741	0.675	0.217	0.199	0.235	0.227	0.169		0.166	0.151	0.268	0.297	0.442	0.416
LCLC-103H	0.735	0.69	0.729	0.676	1.02	0.791	0.934	0.808	0.446	0.49	0.446	0.451	1.13	0.834	0.883	1.15	0.869	0.744	0.788	0.775
LK-2	0.741	0.687	0.649	0.505	0.22	0.182	0.154	0.172	0.768	0.726	0.75	0.74	0.493	0.589	0.717	0.261	0.402	0.448	0.377	0.19
LOU-NH91	0.926	0.87	0.941	0.949	0.286	0.298	0.361	0.369	0.536	0.518	0.52	0.571	1.11	0.902	0.994	0.883	0.823	0.74	0.792	0.726
LU99A	0.27	0.259	0.253	0.218	0.239	0.224	0.265	0.24	0.473	0.388	0.482	0.31	0.614	0.455	0.463	0.33	0.385	0.312	0.349	0.289
LXF-289	1.08	1.01	1.07	1.18	0.679	0.628	0.677	0.754	0.589	0.542	0.571	0.588	0.925	0.951	0.966	1.05	1.12	1.03	1.07	1.17
NCI-H23	0.41	0.251	0.361	0.254	0.23	0.213	0.225	0.2	0.492	0.445	0.53	0.461	0.627	0.402	0.544	0.484	0.234	0.262	0.185	0.279
NCI-H322M	0.764	0.675	0.805	0.329	0.836	0.718	0.766	0.399	0.492	0.47	0.454	0.384	0.969	0.826	0.861	0.779	0.56	0.564	0.573	0.475
NCI-H358	0.748	0.587	0.604	0.458	0.498	0.32	0.242	0.386	0.14	0.128	0.129	0.131	0.835	0.59	0.63	0.367	0.593	0.48	0.519	0.49
NCI-H441	0.498	0.532	0.643	0.643	0.407	0.276	0.355	0.338	0.234	0.174	0.248	0.202	0.633	0.508	0.495	0.458	1.08	1.1	1.15	1.34
NCI-H460	0.461	0.398	0.415	0.391	0.0344	0.0361	0.0325	0.0312	0.158	0.125	0.201	0.14	0.919	0.6	0.855	0.349	0.652	0.669	0.751	0.574
NCI-H647	0.575	0.563	0.912	0.562	0.17	0.114	0.217	0.232	0.473	0.395	0.432	0.415	1.2	0.923	1.24	1.02	0.529	0.422	0.452	0.371
NCI-H650	0.462	0.352	0.47	0.425	0.841	0.7	0.875	0.938	0.339	0.337	0.377	0.383	0.94	0.799	1.06	0.801	1.09	1.06	1.06	0.953
NCI-H727	0.625	0.7	0.722	0.521	0.345		0.355	0.323	0.596	0.688	0.745	0.707	0.312	0.288	0.296	0.267	0.657	0.607	0.487	0.61
NCI-H838	0.867	0.751	0.838	0.641	0.292	0.239	0.425	0.382	0.234	0.19	0.215	0.213	1.09	0.91	1.02	0.744	0.749	0.855	0.877	0.977
NCI-H1355	0.763	0.712	0.734	0.742	0.734	0.592	0.788	0.534	0.399	0.338	0.412	0.418	0.904	0.753	0.728	0.658	0.901	0.615	0.709	0.576
NCI-H1395	0.465	0.397	0.466	0.474	0.918	0.66	0.769	0.488	0.657	0.579	0.63	0.553	1.22	1.02	1.26	1.08	0.41	0.411	0.419	0.418
NCI-H1437	0.661	0.613	0.666	0.712	1.17	1.1	1.17	1.22	0.337	0.302	0.303	0.308	1.01	0.941	1.17	0.746	1.18	1.06	1.16	1.17
NCI-H1651	0.178	0.193	0.191	0.182	1.06	0.835	0.899	0.901	0.528	0.482	0.531	0.494	1.04	0.897	0.93	0.85	0.495	0.476	0.45	0.421
NCI-H1666	0.832	0.751	0.786	0.764	1.03	0.964	1.03	1.08	0.659	0.608	0.606	0.726	0.951	0.691	0.964	0.565	0.855	0.992	0.921	0.892
NCI-H1734	0.647	0.518	0.601	0.514	0.174	0.161	0.179	0.178	0.354	0.328	0.367	0.312	0.964	0.815	0.806	0.666	0.619	0.503	0.574	0.473
NCI-H1755	0.974	0.853	0.846	0.775	0.511	0.328	0.417	0.406	0.495	0.452	0.463	0.455	1.04	0.976	0.973	0.879	0.417	0.483	0.419	0.525
NCI-H1792	0.517	0.453	0.287	0.414	0.431	0.317	0.375	0.32	0.632	0.617	0.645	0.669	0.536	0.449	0.506	0.487	0.775	0.576	0.533	0.389
NCI-H1793	0.875		1.17	0.873	0.148	0.152	0.172	0.188	0.302		0.296	0.373	1.07	0.818	0.985	1.14	0.654		0.476	0.339
NCI-H1915	0.241	0.26	0.268	0.25	0.765	0.638	0.72	0.565	0.542	0.482	0.536	0.421	1.12	1.04	1.03	1.07	0.705	0.62	0.716	0.689
NCI-H1944	0.422	0.353	0.38	0.393	0.406	0.632	0.72	0.726	0.347	0.298	0.343	0.295	1.23	1.1	1.12	1.01	0.477	0.544	0.524	0.492
